# Results as given in PMC10184129 (Journal of Medicinal Chemistry, 2023).
# Tests used:
# [1] = system: murine microglial N9 cells; settings: LPS 100 ng/mL, 24 h; for TREM2 and TGFβ2 expression: 1-5 μM
# hBChE [2] = biological target: T1, hBChE (Homo sapiens, UniProt P06276)
# [3] = system: Aβ25–35-induced learning impairments in mice; settings: 3 mg/kg IP
# hBChE [4] = biological target: T1, hBChE; remark: listed apart in the source
# rCB1R = rCB1R (Rattus norvegicus, UniProt P20272)
# hCB2R = hCB2R (Homo sapiens, UniProt P34972)
# hCB2R, sequence (P34972 whole entry): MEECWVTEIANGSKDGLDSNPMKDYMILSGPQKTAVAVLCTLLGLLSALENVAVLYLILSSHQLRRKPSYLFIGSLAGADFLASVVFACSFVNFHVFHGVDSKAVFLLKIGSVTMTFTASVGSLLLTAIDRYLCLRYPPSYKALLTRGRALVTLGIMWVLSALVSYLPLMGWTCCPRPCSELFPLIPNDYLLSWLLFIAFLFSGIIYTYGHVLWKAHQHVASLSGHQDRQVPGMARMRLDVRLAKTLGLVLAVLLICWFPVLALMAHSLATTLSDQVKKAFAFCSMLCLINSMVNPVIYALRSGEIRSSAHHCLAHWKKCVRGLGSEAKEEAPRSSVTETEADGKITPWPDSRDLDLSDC
# T1 sequence (P06276 29-602): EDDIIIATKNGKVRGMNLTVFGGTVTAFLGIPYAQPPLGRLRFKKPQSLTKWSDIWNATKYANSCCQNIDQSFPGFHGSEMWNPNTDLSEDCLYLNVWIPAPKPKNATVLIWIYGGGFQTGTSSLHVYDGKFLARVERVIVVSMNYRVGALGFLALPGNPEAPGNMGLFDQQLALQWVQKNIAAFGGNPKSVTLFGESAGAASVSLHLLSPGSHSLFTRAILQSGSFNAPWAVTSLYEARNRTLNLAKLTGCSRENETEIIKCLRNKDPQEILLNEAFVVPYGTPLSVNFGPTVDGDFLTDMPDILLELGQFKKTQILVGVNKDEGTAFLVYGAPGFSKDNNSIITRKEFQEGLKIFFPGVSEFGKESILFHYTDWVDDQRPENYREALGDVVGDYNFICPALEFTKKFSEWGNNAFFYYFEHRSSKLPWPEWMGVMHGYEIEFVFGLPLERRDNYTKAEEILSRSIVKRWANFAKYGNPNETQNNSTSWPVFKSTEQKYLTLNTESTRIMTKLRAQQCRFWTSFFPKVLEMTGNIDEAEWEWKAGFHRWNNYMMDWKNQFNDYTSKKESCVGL
# rCB1R, sequence (P20272 whole entry): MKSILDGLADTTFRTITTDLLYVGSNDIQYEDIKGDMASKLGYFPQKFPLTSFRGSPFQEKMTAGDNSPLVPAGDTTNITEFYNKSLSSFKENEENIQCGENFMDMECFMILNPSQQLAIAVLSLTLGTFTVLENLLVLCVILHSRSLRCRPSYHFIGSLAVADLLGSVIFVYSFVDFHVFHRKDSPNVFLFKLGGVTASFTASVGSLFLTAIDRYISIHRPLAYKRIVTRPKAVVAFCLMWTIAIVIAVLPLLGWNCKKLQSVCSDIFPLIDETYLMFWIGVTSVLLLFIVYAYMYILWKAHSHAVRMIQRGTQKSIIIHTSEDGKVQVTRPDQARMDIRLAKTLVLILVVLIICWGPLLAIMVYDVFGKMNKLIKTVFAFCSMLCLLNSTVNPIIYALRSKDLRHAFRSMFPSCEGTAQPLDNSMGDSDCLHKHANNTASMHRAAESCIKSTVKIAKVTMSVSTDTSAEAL
smiles,measurement,setting,value
"CCN(CC)C(=O)c1ccc2c(c1)nc(Cc1ccc(OC(=O)N(C)C)cc1)n2CCC(C)C [15d, 4-((5-(Diethylcarbamoyl)-1-isopentyl-1H-benzo[d]imidazole-2-yl)methyl)phenyl dimethylcarbamate]",TREM2 and TGFβ2 expression,[1],No parallel change
same,concentration significantly decreasing expression of (i)NOS,[1]; Western blot,1.0 µM
same,"νmax, times higher than compound 21d",hBChE [2],15
same,"effect of highest dose on Aβ25–35-induced learning deficits, passive avoidance",[3],complete blockade
"CCOc1ccc(Cc2nc3cc(OC(=O)N(C)C)ccc3n2CCC(C)C)cc1 [21a, 2-(4-Ethoxybenzyl)-1-isopentyl-1H-benzo[d]imidazole-5-yl dimethylcarbamate]",fold less active on hBChE than counterpart 15d,hBChE [4],more than 100 fold
"CCOc1ccc(Cc2nc3cc(OC(=O)N(C)CC)ccc3n2CCC(C)C)cc1 [21b, 2-(4-Ethoxybenzyl)-1-isopentyl-1H-benzo[d]imidazole-5-yl ethyl(methyl)carbamate]",affinity toward CB1R (in words),rCB1R,only exception
"CCOc1ccc(Cc2nc3cc(OC(=O)N4CCC4)ccc3n2CCC(C)C)cc1 [21d, 2-(4-Ethoxybenzyl)-1-isopentyl-1H-benzo[d]imidazole-5-yl Azetidine-1-carboxylate]",TREM2 and TGFβ2 expression,[1],No parallel change
same,concentration significantly decreasing expression of (i)NOS,[1]; Western blot,2.5 µM
same,concentration significantly reducing IL1β release,[1]; Western blot,1.0 µM
CCOc1ccc(Cc2nc3cc(C(=O)N(CC)CC)ccc3n2CCC(C)C)cc1 [compound 4],agonist character in calcium mobilization,hCB2R,full agonist
